{
  "source": "patent US6472350B1",
  "about": "“Utilization of 3-phenyl-pyrones for pest control” (Bayer Aktiengesellschaft, priority 1998, dated 2002)",
  "format_in_all_cases": "in vivo",
  "key": {"[1]": {"tested_on": "peach aphid (Myzus persicae)", "experiment": "Myzus test", "conditions": "active compound concentration 0.1 %, infested cabbage leaves (Brassica oleracea) dipped", "experimental": "Myzus Test Solvent: 7 parts by weight of dimethylformamide Emulsifier: 1 part by weight of alkylaryl polyglycol ether To produce a suitable preparation of active compound, 1 part by weight of active compound is mixed with the stated amounts of solvent and emulsifier, and the concentrate is diluted with emulsifier-containing water to the desired concentration. Cabbage leaves (Brassica oleracea) which are heavily infested by the peach aphid (Myzus persicae) are treated by being dipped into the preparation of active compound of the desired concentration. After the desired period of time, the kill in % is determined. 100% means that all aphids have been killed; 0% means that none of the aphids have been killed."}, "[2]": {"tested_on": "green rice leaf hoppers (Nephotettix cincticeps)", "experiment": "Nephotettix test", "conditions": "active compound concentration 0.1 %, rice seedlings (Oryza sativa) dipped", "experimental": "Nephotettix Test Solvent: 7 parts by weight of dimethylformamide Emulsifier: 1 part by weight of alkylaryl polyglycol ether To produce a suitable preparation of active compound, 1 part by weight of active compound is mixed with the stated amounts of solvent and emulsifier, and the concentrate is diluted with emulsifier-containing water to the desired concentration. Rice seedlings (Oryza sativa) are treated by being dipped into the active compound preparation of the desired concentration and are populated with green rice leaf hoppers (Nephotettix cincticeps) while the leaves are still moist. After the desired period of time, the kill in % is determined. 100% means that all leaf hoppers have been killed; 0% means that none of the leaf hoppers have been killed."}, "[3]": {"tested_on": "larvae of the mustard beetle (Phaedon cochleariae)", "experiment": "Phaedon larvae test", "conditions": "active compound concentration 0.1 %, cabbage leaves (Brassica oleracea) dipped", "experimental": "Phaedon Larvae Test Solvent: 7 parts by weight of dimethylformamide Emulsifier: 1 part by weight of alkylaryl polyglycol ether To produce a suitable preparation of active compound, 1 part by weight of active compound is mixed with the stated amounts of solvent and emulsifier, and the concentrate is diluted with emulsifier-containing water to the desired concentration. Cabbage leaves (Brassica oleracea) are treated by being dipped into the preparation of active compound of the desired concentration and are populated with larvae of the mustard beetle (Phaedon cochleariae) while the leaves are still moist. After the desired period of time, the kill in % is determined. 100% means that all beetle larvae have been killed; 0% means that none of the beetle larvae have been killed."}, "[4]": {"tested_on": "caterpillars of the diamond back moth (Plutella xylostella)", "experiment": "Plutella test", "conditions": "active compound concentration 0.1 %, cabbage leaves (Brassica oleracea) dipped"}},
  "data": [
    {"smiles": "Cc1cc(F)ccc1-c1c(O)c(C)c(-c2ccccn2)oc1=O", "note": "[drawing 10]", "values": [
      {"measurement": "Kill in % after 6 d", "setting": "[1]", "result": 98, "unit": "%"}
    ]},
    {"smiles": "Cc1cc(Cl)ccc1-c1c(O)c(C)c(-c2ccc(F)cc2)oc1=O", "note": "[drawing 11]", "values": [
      {"measurement": "Kill in % after 6 d", "setting": "[2]", "result": 100, "unit": "%"}
    ]},
    {"smiles": "Cc1cc(F)ccc1-c1c(O)c(C)c(-c2ccccn2)oc1=O", "note": "[drawing 12]", "values": [
      {"measurement": "Kill in % after 7 d", "setting": "[3]", "result": 100, "unit": "%"}
    ]},
    {"smiles": "Cc1cc(Cl)ccc1-c1c(O)c(C)c(-c2ccc(F)cc2)oc1=O", "note": "[drawing 13]", "values": [
      {"measurement": "Kill in % after 7 d", "setting": "[4]", "result": 100, "unit": "%"}
    ]},
    {"smiles": "Cc1cc(F)ccc1-c1c(O)c(C)c(-c2ccccn2)oc1=O", "note": "[drawing 14]", "values": [
      {"measurement": "Kill in % after 7 d", "setting": "[4]", "result": 100, "unit": "%"}
    ]}
  ]
}
